In patent publication US10543193B2, “Processes useful for the preparation of 1-[3-(4-bromo-2-methyl-2H-pyrazol-3-yl)-4-methoxy-phenyl]-3-(2,4-difluoro-phenyl)-urea and crystalline forms related thereto” (ARENA PHARMACEUTICALS, INC., priority 2008, dated 2020):
Entries after “also recorded” stand apart in the source; their conditions may differ.

How the values were obtained:
[1] = Effect of milling and compression upon APD125 Form I (PXRD); assay type: physicochemical
Experimental: Micronized APD125 Form I, was ground using a mortar and pestle, with samples withdrawn at 1-min, 5-min and 10-min time points for PXRD analyses to evaluate the impact of grinding upon the solid-state form of APD125 Form I. PXRD patterns were obtained pre- and post-milling. Additionally, micronized APD125 Form I, was compressed at 2 kp, 5 kp and 10 kp for 1 min per sample using a Carver press. The samples were then removed from the Carver press and lightly broken up using a mortar and pestle, prior to PXRD analysis to evaluate the impact of compression upon the solid-state form of APD125 Form I. PXRD patterns were obtained pre- and post-compression.
(§1) PXRD measurements were obtained using a Philips (PANalytical) X'Pert PRO theta/theta diffractometer (EQ 0233) equipped with an X'Celerator RTMS detector and utilizing copper Kα radiation, operating at 45 kV and 40 mA. The instrument radius was 239.5 mm, the mask filter was 20 mm, the soller slit was 0.04 radians, and a nickel filter and sample spinning were used during data acquisition. The application and instrument control software used were X'Pert Data Collector®, version 2.0c and XPERT-PRO®, version 1.6, respectively. The samples were scanned from 5° to 40°2θ in continuous mode, using a step size of 0.0167°2θ.

[2] = Methyl cellulose optimization: Form I to Form II conversion in water pastes (PXRD); assay type: physicochemical
Experimental: In a small scintillation vial, 152.13 mg of micronized APD125 Form I, was spiked with sufficient deionized water to make a paste; the weight of the water added, 844.60 mg, was recorded, and the resulting mixture was stirred using a spatula to obtain a paste. The resulting sample, post-collection of an initial PXRD pattern, was capped, wrapped in tinfoil and stored at 40° C. until the next day, when a second PXRD pattern was obtained.
Using another small scintillation vial, 2.1183 g of micronized APD125 Form I, was mixed with 3.3619 g of a 0.5% w/v methyl cellulose to obtain a paste, which was immediately sampled for PXRD analysis to verify starting APD125 solid-state form, post-methyl cellulose addition. The remaining sample in the scintillation vial was split into two portions, placed in capped, parafilm-wrapped scintillation vials, which were then wrapped in tinfoil and stored at 40° C. and room temperature, respectively. PXRD patterns were collected at initial (t=0), 2-day and 16-day time points for each sample.
APD125 micronized Form I/PVP (1:8) blend, weighing 3.0081 g and containing 0.5% w/w methyl cellulose, was mixed with 3.71277 g of water to form a paste. After sampling the paste for an initial PXRD pattern, the remaining paste was split into two portions, placed in capped, parafilm-wrapped scintillation vials, which were then wrapped in tinfoil and stored at 40° C. and room temperature, respectively. PXRD patterns were collected at initial (t=0), 1-day, 7-day and 21-day time points.
For each blend, materials were dispensed (minus magnesium stearate) into a glass vial and blended for about 5 minutes. Magnesium stearate was added and the mixture was blended an additional 2 minutes. The final blend was compacted into standard round concave tablets ( 5/16″ diameter) with a total tablet weight of 200 mg and hardness of 10 kp using a Carver press. For each batch of tablets, several were crushed using a mortar and pestle to obtain a fine powder, from which a small sample was taken for PXRD analysis to confirm the initial APD125 polymorphic form. The remaining powder was weighed into a Qorpak® bottle, and ca. 50% w/w deionized water was added. The resulting mixture was stirred using a micro-spatula to wet the powder and form a paste. A Teflon® lid was screwed on tightly, and the prepared samples were stored in a 40° C. oven.
as §1, with “respectively. The API-based paste samples were” for “respectively. The samples were”, “size of 0.0167°2θ and a counting time of 40.005 seconds. The tablet granulation samples were scanned from 2° to 15°2θ in continuous mode, using a step size of 0.0167°2θ and a counting time of 1063.625 s.” for “size of 0.0167°2θ.”

normal volunteers = assay: Afternoon nap model of insomnia in normal volunteers; assay type: in vivo, humans
From the text: Sleep onset latency was not decreased by APD125. In the afternoon nap model, APD125 decreased microarousals, the number of sleep stage shifts and number of awakenings after sleep onset.

insomnia patients = assay: Phase 2 trial: sleep maintenance; assay type: in vivo, humans
From the text: The data from the APD125 Phase 2 study are consistent with Phase 1 data and support further development of APD125 for the treatment of insomnia patients who have difficulty maintaining sleep.

Healthy Adults = assay: Phase 1 trials: waking EEG; assay type: in vivo, humans

| SMILES | PXRD pattern after compression ([1]; compressed at 2 kp, 5 kp and 10 kp vs uncompressed) | PXRD pattern after grinding ([1]; mortar and pestle, 1 minute, 5 minutes and 10 minutes, listed as micronized APD125 Form I) | conversion to Form II (PXRD) ([2]; aqueous 0.5% w/w methyl cellulose, 40° C., after 16 days) | PXRD pattern (FIG. 8 legend) ([2]; aqueous 0.5% w/w methyl cellulose, room temperature and 40° C., after 16 days) | time to conversion to Form II (PXRD) ([2]; paste in water alone at 40° C.) [h] | PXRD pattern (FIG. 9 legend) ([2]; paste in water alone at room temperature and 40° C. after 24 h) | conversion to Form II (PXRD) ([2]; suspended in aqueous 0.5% w/w methyl cellulose, room temperature, 21 days) | Sleep onset latency (normal volunteers) | microarousals, number of sleep stage shifts and number of awakenings after sleep onset (normal volunteers) | slow wave sleep and associated parameters (normal volunteers; primarily during the early part of sleep) | next day cognitive effects (insomnia patients) | measurements of sleep maintenance (insomnia patients; compared to placebo) | dose with maximal effects on waking EEG (Healthy Adults) [mg] | effects on waking EEG (Healthy Adults) | time of peak effects on waking EEG after dosing (Healthy Adults) [h] |
| --- | --- | --- | --- | --- | --- | --- | --- | --- | --- | --- | --- | --- | --- | --- | --- |
| COc1ccc(NC(=O)Nc2ccc(F)cc2F)cc1-c1c(Br)cnn1C [APD125 Form I, 1-[3-(4-bromo-2-methyl-2H-pyrazol-3-yl)-4-methoxy-phenyl]-3-(2,4-difluoro-phenyl)-urea] | consistent with APD125 Form I; also recorded: all substantially comprise Form I | No significant changes in the PXRD patterns; also recorded: all substantially comprise Form I | no evidence of conversion to Form II | substantially converted to Form II | ≤ 24 | substantially converted to Form II | did not convert to Form II | – | – | – | – | – | – | – | – |
| COc1ccc(NC(=O)Nc2ccc(F)cc2F)cc1-c1c(Br)cnn1C [Compound I, 1-[3-(4-bromo-2-methyl-2H-pyrazol-3-yl)-4-methoxy-phenyl]-3-(2,4-difluoro-phenyl)-urea] | – | – | – | – | – | – | – | not decreased | decreased | increased slow wave sleep and associated parameters in a dose-dependent manner | without any limiting next day cognitive effects | statistically significant improvements | 40 to 80 | vigilance-lowering effects | 2 to 4 |
